Test results from patent US6355799B1, “Substituted benzene compounds, process for their preparation, and herbicidal and defoliant compositions containing them” (ISK Americas Incorporated, priority 1997, dated 2002).

Key:
Format in all cases: in vivo
[1] = test system: redroot pigweed (Amaranthus retroflexus, AMARE); experiment: Pre-emerge test, greenhouse herbicide activity screening
Procedure, shortened: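 Compounds in acetone were track-sprayed at 15-1000 g ai/ha (187 l/ha) on sandy loam pots: pre-emerge one day after seeding, post-emerge at 2-3 leaf stage with 0.25% v/v non-ionic surfactant. Phytotoxicity was rated 14 days later on a 0 (no damage) to 100 (complete death) scale.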

[2] = test system: barnyardgrass (Echinochloa crus-galli, ECHCG); experiment: as above
Procedure, shortened: (§1)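 Compounds in acetone were track-sprayed at 187 l/ha, 15–1000 g ai/ha, onto sandy loam pots. Pre-emerge seeds were sown one day before spraying, with surface watering afterwards. Post-emerge plants were at the 2–3 leaf stage and sprayed with 0.25% v/v non-ionic surfactant. Injury was rated 0–100 at 14 days.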

[3] = test system: green foxtail (Setaria viridis, SETVI); experiment: as above
Procedure, shortened: as §1

[4] = test system: ivyleaf morningglory (Ipomoea hederacea, IPOHE); experiment: as above
Procedure, shortened: as §1

[5] = test system: johnsongrass (Sorghum halepense, SORHA); experiment: as above
Procedure, shortened: as §1

[6] = test system: lambsquarters (Chenopodium album, CHEAL); experiment: as above
Procedure, shortened: as §1

[7] = test system: large crabgrass (Digitaria sanguinalis, DIGSA); experiment: as above
Procedure, shortened: as §1

[8] = test system: sicklepod (Cassia obtusifolia, CASOB); experiment: as above
Procedure, shortened: as §1

[9] = test system: velvetleaf (Abutilon theophrasti, ABUTH); experiment: as above
Procedure, shortened: as §1

[10] = test system: field corn (Zea mays L., var. Dekalb 535, CORN); experiment: Pre-emerge test, crop safety
Procedure, shortened: as §1

[11] = test system: upland rice (Oryza sp., var. Tebonnet, RICE); experiment: Pre-emerge test, crop safety
Procedure, shortened: as §1

[12] = test system: barnyardgrass (Echinochloa crus-galli, ECHCG); experiment: Post-emerge test, greenhouse herbicide activity screening; details: post-emerge, phytotoxicity rating 0-100 at 14 days after application
Procedure, shortened: (§2)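 Rating: 0–100 visual injury, 14 DAA. Application: acetone, 187 l/ha, 15–1000 g ai/ha, flat-fan track sprayer with nozzle 40–45 cm above soil or canopy. Post-emerge runs used 0.25% v/v surfactant on 2–3 leaf plants.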

[13] = test system: green foxtail (Setaria viridis, SETVI); experiment: as above; details: post-emerge, phytotoxicity rating 0-100 at 14 days after application
Procedure, shortened: as §2

[14] = test system: ivyleaf morningglory (Ipomoea hederacea, IPOHE); experiment: as above; details: post-emerge, phytotoxicity rating 0-100 at 14 days after application
Procedure, shortened: as §2

[15] = test system: johnsongrass (Sorghum halepense, SORHA); experiment: as above; details: post-emerge, phytotoxicity rating 0-100 at 14 days after application
Procedure, shortened: as §2

[16] = test system: lambsquarters (Chenopodium album, CHEAL); experiment: as above; details: post-emerge, phytotoxicity rating 0-100 at 14 days after application
Procedure, shortened: as §2

[17] = test system: large crabgrass (Digitaria sanguinalis, DIGSA); experiment: as above; details: post-emerge, phytotoxicity rating 0-100 at 14 days after application
Procedure, shortened: as §2

[18] = test system: redroot pigweed (Amaranthus retroflexus, AMARE); experiment: as above; details: post-emerge, phytotoxicity rating 0-100 at 14 days after application
Procedure, shortened: as §2

[19] = test system: sicklepod (Cassia obtusifolia, CASOB); experiment: as above; details: post-emerge, phytotoxicity rating 0-100 at 14 days after application
Procedure, shortened: as §2

[20] = test system: velvetleaf (Abutilon theophrasti, ABUTH); experiment: as above; details: post-emerge, phytotoxicity rating 0-100 at 14 days after application
Procedure, shortened: as §2

[21] = test system: field corn (Zea mays L., var. Dekalb 535, CORN); experiment: Post-emerge test, crop safety; details: post-emerge, crop damage rating 0-100 at 14 days after application
Procedure, shortened: as §1

[22] = test system: upland rice (Oryza sp., var. Tebonnet, RICE); experiment: Post-emerge test, crop safety; details: post-emerge, crop damage rating 0-100 at 14 days after application
Procedure, shortened: as §1

[23] = 250 g ai/ha, rating scale 0-100, 14 days after application
[24] = pre-emerge, rate 63 g ai/ha, phytotoxicity rating 0-100 at 14 days after application
[25] = crop damage, pre-emerge, rate 63 g ai/ha, phytotoxicity rating 0-100 at 14 days after application

SMILES: Nc1c(O)c(Cl)cc(F)c1N1C(=O)C2CCCCN2C1=S (single isomer, unassigned) [12-2]
- Pre-emerge herbicidal activity, phytotoxicity rating AMARE [1, 23]: 100
- Pre-emerge Herbicidal Activity AMARE [1, 24]: 100
- Pre-emerge herbicidal activity, phytotoxicity rating ECHCG [2, 23]: 99
- Pre-emerge Herbicidal Activity ECHCG [2, 24]: 40
- Pre-emerge herbicidal activity, phytotoxicity rating SETVI [3, 23]: 100
- Pre-emerge Herbicidal Activity SETVI [3, 24]: 95
- Pre-emerge herbicidal activity, phytotoxicity rating IPOHE [4, 23]: 100
- Pre-emerge Herbicidal Activity IPOHE [4, 24]: 95
- Pre-emerge herbicidal activity, phytotoxicity rating SORHA [5, 23]: 100
- Pre-emerge Herbicidal Activity SORHA [5, 24]: 90
- Pre-emerge herbicidal activity, phytotoxicity rating CHEAL [6, 23]: 100
- Pre-emerge Herbicidal Activity CHEAL [6, 24]: 100
- Pre-emerge herbicidal activity, phytotoxicity rating DIGSA [7, 23]: 100
- Pre-emerge Herbicidal Activity DIGSA [7, 24]: 95
- Pre-emerge herbicidal activity, phytotoxicity rating CASOB [8, 23]: 100
- Pre-emerge Herbicidal Activity CASOB [8, 24]: 99
- Pre-emerge herbicidal activity, phytotoxicity rating ABUTH [9, 23]: 100
- Pre-emerge Herbicidal Activity ABUTH [9, 24]: 100
- Pre-emerge phytotoxicity rating, crop damage CORN [10, 23]: 99
- Pre-emerge Herbicidal Activity CORN [10, 25]: 40
- Pre-emerge phytotoxicity rating, crop damage RICE [11, 23]: 99
- Pre-emerge Herbicidal Activity RICE [11, 25]: 50
- Post-emerge Herbicidal Activity ECHCG ([12]; 63 g ai/ha): 30
- Post-emerge Herbicidal Activity ECHCG ([12]; 250 g ai/ha): 80
- Post-emerge Herbicidal Activity SETVI ([13]; 63 g ai/ha): 0
- Post-emerge Herbicidal Activity SETVI ([13]; 250 g ai/ha): 50
- Post-emerge Herbicidal Activity IPOHE ([14]; 63 g ai/ha): 90
- Post-emerge Herbicidal Activity IPOHE ([14]; 250 g ai/ha): 100
- Post-emerge Herbicidal Activity SORHA ([15]; 63 g ai/ha): 10
- Post-emerge Herbicidal Activity SORHA ([15]; 250 g ai/ha): 90
- Post-emerge Herbicidal Activity CHEAL ([16]; 63 g ai/ha): 100
- Post-emerge Herbicidal Activity CHEAL ([16]; 250 g ai/ha): 100
- Post-emerge Herbicidal Activity DIGSA ([17]; 63 g ai/ha): 0
- Post-emerge Herbicidal Activity DIGSA ([17]; 250 g ai/ha): 70
- Post-emerge Herbicidal Activity AMARE ([18]; 63 g ai/ha): 30
- Post-emerge Herbicidal Activity AMARE ([18]; 250 g ai/ha): 100
- Post-emerge Herbicidal Activity CASOB ([19]; 63 g ai/ha): 50
- Post-emerge Herbicidal Activity CASOB ([19]; 250 g ai/ha): 95
- Post-emerge Herbicidal Activity ABUTH ([20]; 63 g ai/ha): 100
- Post-emerge Herbicidal Activity ABUTH ([20]; 250 g ai/ha): 100
- Post-emerge Herbicidal Activity CORN ([21]; 63 g ai/ha): 10
- Post-emerge Herbicidal Activity CORN ([21]; 250 g ai/ha): 100
- Post-emerge Herbicidal Activity RICE ([22]; 63 g ai/ha): 20
- Post-emerge Herbicidal Activity RICE ([22]; 250 g ai/ha): 80
